Biological target: T1, CCR2 receptor (Homo sapiens, UniProt P41597)
T1 construct: expressed in transfected cells
Test: compound-induced calcium activity on FLIPR Tetra in HEK-Gqi5 cells stably expressing CCR2
Type: cell-based
Conditions: CCR2 receptor, HEK-Gqi5 cells stably expressing CCR2, calcium FLIPR Tetra; for IC50: read-out: IC50
Procedure: HEK-Gqi5 cells stably expressing CCR2 were cultured in (DMEM high glucose, 10% FBS, 1% PSA, 400 μg/ml geneticin and 50 μg/ml hygromycin. Appropriate positive control chemokines (MCP-1, MIP1A or RANTES) was used as the positive control agonist for screening compound-induced calcium activity assayed on the FLIPR^Tetra. The drug plates were prepared in 384-well microplates using the EP3 and the MultiPROBE robotic liquid handling systems. Compounds were synthesized and tested for CCR2 activity.

T1 sequence (P41597 whole entry): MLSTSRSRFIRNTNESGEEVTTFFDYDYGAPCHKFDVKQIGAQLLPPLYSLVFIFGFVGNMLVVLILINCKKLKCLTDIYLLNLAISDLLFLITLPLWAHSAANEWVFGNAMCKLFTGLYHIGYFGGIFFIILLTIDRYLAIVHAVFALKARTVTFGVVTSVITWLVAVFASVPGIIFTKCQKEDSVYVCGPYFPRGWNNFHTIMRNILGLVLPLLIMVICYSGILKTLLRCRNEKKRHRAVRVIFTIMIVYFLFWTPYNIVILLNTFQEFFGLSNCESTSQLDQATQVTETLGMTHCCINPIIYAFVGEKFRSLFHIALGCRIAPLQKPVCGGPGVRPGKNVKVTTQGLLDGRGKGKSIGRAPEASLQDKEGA

Compound: O=C(c1ccccc1)c1ncc(Cl)cc1NS(=O)(=O)c1cc2ccccc2o1 [Compound 29, N-[5-chloro-2-(phenylcarbonyl)pyridin-3-yl]-1-benzofuran-2-sulfonamide]
- % ANTAGONISM: 100%
- IC50: 36 nM

Compound: O=S(=O)(Nc1cc(Cl)cnc1S(=O)(=O)c1ccccc1)c1cc2ccccc2o1 [Compound 31, N-[5-chloro-2-(phenylsulfonyl)pyridin-3-yl]-1-benzofuran-2-sulfonamide]
- % ANTAGONISM: 105%
- IC50: 17 nM

Compound: O=S(=O)(Nc1cc(Cl)cnc1[S+]([O-])c1ccccc1)c1cc2ccccc2o1 (stereo not shown) [Compound 32, N-[5-chloro-2-(phenylsulfinyl)pyridin-3-yl]-1-benzofuran-2-sulfonamide]
- % ANTAGONISM: 99%
- IC50: 7 nM

Compound: Cc1ncccc1COc1ncc(Cl)cc1NS(=O)(=O)c1cc2ccccc2o1 [Compound 33, N-{5-chloro-2-[(2-methylpyridin-3-yl)methoxy]pyridin-3-yl}-1-benzofuran-2-sulfonamide]
- % ANTAGONISM: 102%
- IC50: 251 nM

Compound: COC(=O)c1ccccc1CSc1ncc(Cl)cc1NS(=O)(=O)c1cc2ccccc2o1 [Compound 35, methyl 2-[({3-[(1-benzofuran-2-ylsulfonyl)amino]-5-chloropyridin-2-yl}sulfanyl)methyl]benzoate]
- % ANTAGONISM: 91%
- IC50: 4250 nM

Compound: O=C(O)c1ccccc1CSc1ncc(Cl)cc1NS(=O)(=O)c1cc2ccccc2o1 [Compound 36, 2-[({3-[(1-benzofuran-2-ylsulfonyl)amino]-5-chloropyridin-2-yl}sulfanyl)methyl]benzoic acid]
- % ANTAGONISM: 97%
- IC50: 340 nM

Compound: COC(=O)c1ccccc1C[S+]([O-])c1ncc(Cl)cc1NS(=O)(=O)c1cc2ccccc2o1 (stereo not shown) [Compound 37, methyl 2-[({3-[(1-benzofuran-2-ylsulfonyl)amino]-5-chloropyridin-2-yl}sulfinyl)methyl]benzoate]
- % ANTAGONISM: 95%
- IC50: 191 nM

Compound: COC(=O)c1ccccc1CS(=O)(=O)c1ncc(Cl)cc1NS(=O)(=O)c1cc2ccccc2o1 [Compound 38, methyl 2-[({3-[(1-benzofuran-2-ylsulfonyl)amino]-5-chloropyridin-2-yl}sulfonyl)methyl]benzoate]
- % ANTAGONISM: 97%
- IC50: 180 nM

Compound: O=C(O)c1ccccc1CS(=O)(=O)c1ncc(Cl)cc1NS(=O)(=O)c1cc2ccccc2o1 [Compound 39, 2-[({3-[(1-benzofuran-2-ylsulfonyl)amino]-5-chloropyridin-2-yl}sulfonyl)methyl]benzoic acid]
- % ANTAGONISM: 32%
- IC50: 2690 nM

Compound: O=S(=O)(Nc1cc(F)cnc1Sc1ccccc1)c1cc2ccccc2o1 [Compound 40, N-[5-fluoro-2-(phenylsulfanyl)pyridin-3-yl]-1-benzofuran-2-sulfonamide]
- % ANTAGONISM: 65%
- IC50: 469 nM

Compound: O=S(=O)(Nc1cc(F)cnc1[S+]([O-])c1ccccc1)c1cc2ccccc2o1 (stereo not shown) [Compound 41, N-[5-fluoro-2-(phenylsulfinyl)pyridin-3-yl]-1-benzofuran-2-sulfonamide]
- % ANTAGONISM: 97%
- IC50: 68 nM

Compound: O=C(O)c1ccccc1C[S+]([O-])c1ncc(Cl)cc1NS(=O)(=O)c1cc2ccccc2o1 (stereo not shown) [Compound 43, 2-[({3-[(1-benzofuran-2-ylsulfonyl)amino]-5-chloropyridin-2-yl}sulfinyl)methyl]benzoic acid]
- % ANTAGONISM: 90%

Compound: Cc1cnc([S+]([O-])c2ccccc2)c(NS(=O)(=O)c2cc3ccccc3o2)c1 (stereo not shown) [Compound 45, N-[5-methyl-2-(phenylsulfinyl)pyridin-3-yl]-1-benzofuran-2-sulfonamide]
- % ANTAGONISM: 105%
- IC50: 455 nM

Compound: Cc1cnc(S(=O)(=O)c2ccccc2)c(NS(=O)(=O)c2cc3ccccc3o2)c1 [Compound 46, N-[5-methyl-2-(phenylsulfonyl)pyridin-3-yl]-1-benzofuran-2-sulfonamide]
- % ANTAGONISM: 57%
- IC50: 1440 nM

Compound: O=C(O)c1ccccc1Sc1ncc(Cl)cc1NS(=O)(=O)c1cc2ccccc2o1 [Compound 47, 2-({3-[(1-benzofuran-2-ylsulfonyl)amino]-5-chloropyridin-2-yl}sulfanyl)benzoic acid]
- % ANTAGONISM: 102%
- IC50: 1230 nM

Compound: O=C(O)c1cccc(Sc2ncc(Cl)cc2NS(=O)(=O)c2cc3ccccc3o2)c1 [Compound 48, 3-({3-[(1-benzofuran-2-ylsulfonyl)amino]-5-chloropyridin-2-yl}sulfanyl)benzoic acid]
- % ANTAGONISM: 96%
- IC50: 786 nM

Compound: O=C(O)c1ccccc1[S+]([O-])c1ncc(Cl)cc1NS(=O)(=O)c1cc2ccccc2o1 (stereo not shown) [Compound 50, 2-({3-[(1-benzofuran-2-ylsulfonyl)amino]-5-chloropyridin-2-yl}sulfinyl)benzoic acid]
- % ANTAGONISM: 5%
- IC50: 1950 nM

Compound: COC(=O)c1ccccc1CSc1ncccc1NS(=O)(=O)c1cc2ccccc2o1 [Compound 56, methyl 2-[({3-[(1-benzofuran-2-ylsulfonyl)amino]pyridin-2-yl}sulfanyl)methyl]benzoate]
- % ANTAGONISM: 92%
- IC50: 1750 nM

Compound: O=C(O)c1ccccc1CSc1ncccc1NS(=O)(=O)c1cc2ccccc2o1 [Compound 57, 2-[({3-[(1-benzofuran-2-ylsulfonyl)amino]pyridin-2-yl}sulfanyl)methyl]benzoic acid]
- % ANTAGONISM: 98%
- IC50: 493 nM

Compound: COC(=O)c1ccccc1C[S+]([O-])c1ncccc1NS(=O)(=O)c1cc2ccccc2o1 (stereo not shown) [Compound 58, methyl 2-[({3-[(1-benzofuran-2-ylsulfonyl)amino]pyridin-2-yl}sulfinyl)methyl]benzoate]
- % ANTAGONISM: 102%
- IC50: 198 nM

Compound: O=C(O)c1ccccc1C[S+]([O-])c1ncccc1NS(=O)(=O)c1cc2ccccc2o1 (stereo not shown) [Compound 59, 2-[({3-[(1-benzofuran-2-ylsulfonyl)amino]pyridin-2-yl}sulfinyl)methyl]benzoic acid]
- % ANTAGONISM: 58%

Compound: COC(=O)c1ccccc1CS(=O)(=O)c1ncccc1NS(=O)(=O)c1cc2ccccc2o1 [Compound 60, methyl 2-[({3-[(1-benzofuran-2-ylsulfonyl)amino]pyridin-2-yl}sulfonyl)methyl]benzoate]
- % ANTAGONISM: 101%
- IC50: 86 nM

Compound: O=C(O)c1ccccc1CS(=O)(=O)c1ncccc1NS(=O)(=O)c1cc2ccccc2o1 [Compound 61, 2-[({3-[(1-benzofuran-2-ylsulfonyl)amino]pyridin-2-yl}sulfonyl)methyl]benzoic acid]
- % ANTAGONISM: 57%

— patent US8815915B2, “Benzofuran-2-sulfonamides pyridine derivatives as chemokine receptor modulators” (Allergan, Inc., priority 2012, dated 2014)
